Reference: paper PMC2956102 (International Journal of Molecular Sciences, 2010)
Like-named read-outs stand apart in the source and are kept apart here.

What was measured:
intestinal maltase = test: Intestinal α-glucosidase (maltase) inhibition assay, rat intestinal acetone powder; assay type: biochemical; conditions: for IC50: 37 mM maltose, pH 6.9, 37 °C, 30 min, means ± S.E.M., n = 3
Experimental: (§1) The assessment of α-glucosidase inhibitory activity was performed according to our previous report. Briefly, 100 mg of rat intestinal acetone powder was homogenized in 3 mL of 0.9% NaCl solution. After centrifugation (12,000 g × 30 min), 10 μL of the supernatant (maltase = 0.68 units/mg protein, sucrase = 0.10 units/mg protein) was incubated with 70 μL of substrate solution (37 mM maltose, 54 mM sucrose), and 20 μL of sample at various concentrations in 0.1 M phosphate buffer pH 6.9 at 37 °C for 30 min (maltase assay) and 60 min (sucrase assay). The mixtures were suspended in boiling water for 10 min to stop the reaction. The concentrations of glucose released from the reaction mixtures were determined by glucose oxidase method. Acarbose was used as a positive control for this assay.
(§2) The reaction was performed according to the above assay (α-glucosidase and pancreatic α-amylase). Results were expressed as a percentage inhibition of the corresponding control values.

[1] = cited from earlier work
[2] = target: T1, porcine pancreatic α-amylase (Sus scrofa, UniProt P00690); test: Pancreatic α-amylase inhibition assay (starch, DNS reagent); assay type: biochemical; conditions: for Percentage pancreatic α-amylase inhibition in combination with acarbose, compared with acarbose alone: 1.0 μM compound + 3.12 μM acarbose, Figure 4; for IC50: 1 g/L starch, amylase 3 U/mL, pH 6.9, 10 min, means ± S.E.M., n = 3
T1 construct: purchased Sigma Chemical Co. Ltd. (St. Louis, MO)
T1 sequence (P00690 16-511): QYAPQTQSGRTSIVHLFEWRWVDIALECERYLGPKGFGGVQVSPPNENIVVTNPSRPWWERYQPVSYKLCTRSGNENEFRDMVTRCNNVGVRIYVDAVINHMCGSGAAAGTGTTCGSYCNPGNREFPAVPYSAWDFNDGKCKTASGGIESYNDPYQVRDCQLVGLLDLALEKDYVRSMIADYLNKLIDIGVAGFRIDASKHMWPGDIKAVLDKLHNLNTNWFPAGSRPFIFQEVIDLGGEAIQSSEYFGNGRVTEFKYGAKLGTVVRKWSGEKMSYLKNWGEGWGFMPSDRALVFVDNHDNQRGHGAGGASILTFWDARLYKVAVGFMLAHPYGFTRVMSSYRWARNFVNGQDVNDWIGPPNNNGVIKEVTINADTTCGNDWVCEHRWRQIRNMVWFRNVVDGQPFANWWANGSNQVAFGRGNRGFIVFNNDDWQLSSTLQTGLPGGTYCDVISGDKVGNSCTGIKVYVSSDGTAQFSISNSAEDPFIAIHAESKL
Experimental: The pancreatic α-amylase inhibition assay was performed according to our previous reports. Porcine pancreatic α-amylase was dissolved in 0.1 M phosphate buffer saline, pH 6.9. The various concentrations of test compounds were added to solution containing in 1 g/L starch and phosphate buffer. The reaction was initiated by adding amylase (3 U/mL) to the incubation medium to a final volume of 500 μL. After 10 min, the reaction was stopped by adding 0.5 mL dinitrosalicylic (DNS) reagent (1% 3,5-dinitrosalicylic acid, 0.2% phenol, 0.05% Na2SO3, and 1% NaOH in aqueous solution) to the reaction mixture. The mixtures were heated at 100 °C for 10 min and 500 μL of 40% potassium sodium tartarate solution was added to the mixtures to stabilize the color. After cooling to room temperature in a cold water bath, absorbance was recorded at 540 nm using a spectrophotometer.
as §2

intestinal sucrase [3] = target: T2, intestinal sucrase (Rattus norvegicus, UniProt P23739); test: Intestinal α-glucosidase (sucrase) inhibition assay, rat intestinal acetone powder; assay type: biochemical; conditions: for Percentage intestinal sucrase inhibition in combination with acarbose, compared with acarbose alone: 1 μM compound + 3.12 μM acarbose, Figure 3; for IC50: 54 mM sucrose, pH 6.9, 37 °C, 60 min, means ± S.E.M., n = 3
T2 construct: 100 mg of rat intestinal acetone powder was homogenized in 3 mL of 0.9% NaCl solution; tissue Sigma Chemical Co. Ltd. (St. Louis, MO); host or cells: rat intestine (acetone powder, supernatant of the saline homogenate)
Experimental: as §1, with “method.” for “method. Acarbose was used as a positive control for this assay.”
as §2

pancreatic β-cell line = system: pancreatic β-cell line; parameters: method as in PMID 15631504; conditions: ref [16]; cited from earlier work
intestinal α-glucosidase = conditions: combination of acarbose and compound; ref [8]; cited from earlier work
intestinal sucrase [4] = target: T2, intestinal sucrase; conditions: cited from earlier work
3T3-L1 adipocytes = system: 3T3-L1 adipocytes; parameters: method as in PMID 18179781; conditions: H2O2- or TNF-α-induced, via inhibition of JNK signal pathway; ref [15]; cited from earlier work
yeast α-glucosidase = system: yeast α-glucosidase; parameters: method as in PMID 15558946; conditions: ref [9]; cited from earlier work

T2 sequence (P23739 1014-1841 limits assumed): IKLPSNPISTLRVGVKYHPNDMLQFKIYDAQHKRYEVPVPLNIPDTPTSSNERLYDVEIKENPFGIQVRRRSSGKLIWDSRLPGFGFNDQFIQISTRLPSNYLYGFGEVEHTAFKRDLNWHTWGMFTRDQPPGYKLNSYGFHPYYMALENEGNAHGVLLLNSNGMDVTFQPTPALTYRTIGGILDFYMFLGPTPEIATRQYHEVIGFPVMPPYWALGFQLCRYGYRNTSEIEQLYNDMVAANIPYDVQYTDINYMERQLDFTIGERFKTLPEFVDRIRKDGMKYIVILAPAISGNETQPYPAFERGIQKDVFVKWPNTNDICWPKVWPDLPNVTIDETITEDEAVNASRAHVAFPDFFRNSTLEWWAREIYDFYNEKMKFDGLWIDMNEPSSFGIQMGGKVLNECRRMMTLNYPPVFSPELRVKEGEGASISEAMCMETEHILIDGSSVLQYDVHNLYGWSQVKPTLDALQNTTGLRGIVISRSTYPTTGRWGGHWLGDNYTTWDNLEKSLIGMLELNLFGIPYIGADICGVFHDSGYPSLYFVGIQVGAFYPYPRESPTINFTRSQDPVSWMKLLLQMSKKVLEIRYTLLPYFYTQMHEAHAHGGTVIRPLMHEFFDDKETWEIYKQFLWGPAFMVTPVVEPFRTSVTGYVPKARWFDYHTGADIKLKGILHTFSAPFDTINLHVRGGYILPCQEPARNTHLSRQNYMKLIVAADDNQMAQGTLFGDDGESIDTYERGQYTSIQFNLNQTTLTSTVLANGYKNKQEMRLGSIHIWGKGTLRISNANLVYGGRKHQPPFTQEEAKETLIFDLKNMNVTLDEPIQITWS
T2 sequence (P23739 2-1013 partner limits assumed): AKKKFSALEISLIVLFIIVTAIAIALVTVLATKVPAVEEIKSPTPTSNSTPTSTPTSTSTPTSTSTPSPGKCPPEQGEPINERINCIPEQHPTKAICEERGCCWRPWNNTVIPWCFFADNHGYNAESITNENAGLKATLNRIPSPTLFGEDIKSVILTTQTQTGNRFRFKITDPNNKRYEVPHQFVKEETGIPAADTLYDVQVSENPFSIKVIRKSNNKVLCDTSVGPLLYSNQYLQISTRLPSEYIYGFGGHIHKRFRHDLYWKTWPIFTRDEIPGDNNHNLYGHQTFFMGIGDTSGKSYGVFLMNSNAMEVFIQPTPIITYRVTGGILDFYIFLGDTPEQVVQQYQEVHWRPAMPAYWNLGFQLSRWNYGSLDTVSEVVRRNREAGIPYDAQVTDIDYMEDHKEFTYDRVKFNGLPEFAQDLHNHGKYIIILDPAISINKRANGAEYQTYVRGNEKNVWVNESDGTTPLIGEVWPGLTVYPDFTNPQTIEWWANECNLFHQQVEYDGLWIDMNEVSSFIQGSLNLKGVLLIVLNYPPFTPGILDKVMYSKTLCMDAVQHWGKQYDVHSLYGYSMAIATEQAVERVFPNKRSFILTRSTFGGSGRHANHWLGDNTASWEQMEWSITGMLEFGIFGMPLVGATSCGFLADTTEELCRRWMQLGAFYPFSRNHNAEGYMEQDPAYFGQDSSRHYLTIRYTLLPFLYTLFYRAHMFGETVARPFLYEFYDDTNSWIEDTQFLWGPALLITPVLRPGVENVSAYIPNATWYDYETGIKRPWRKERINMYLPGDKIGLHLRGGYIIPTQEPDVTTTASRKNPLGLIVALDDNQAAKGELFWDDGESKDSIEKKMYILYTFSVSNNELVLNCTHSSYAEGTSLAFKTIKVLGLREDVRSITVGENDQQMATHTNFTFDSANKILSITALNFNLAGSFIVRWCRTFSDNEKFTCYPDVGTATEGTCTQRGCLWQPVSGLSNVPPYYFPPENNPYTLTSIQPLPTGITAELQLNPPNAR

Structure (SMILES)	IC50 (intestinal maltase) [µM]	Pancreatic α-amylase inhibitory activity [2]	Percentage pancreatic α-amylase inhibition in combination with acarbose, compared with acarbose alone [2]	IC50 [2] [µM]	Intestinal sucrase inhibitory activity (intestinal sucrase [3])	Percentage intestinal sucrase inhibition in combination with acarbose, compared with acarbose alone (intestinal sucrase [3])	IC50 (intestinal sucrase [3]) [µM]	Insulin secretion (pancreatic β-cell line)	further results
C[C@H]1O[C@H](O[C@H]2[C@H](O)[C@@H](O)[C@@H](O[C@H]3[C@H](O)[C@@H](O)C(O)O[C@@H]3CO)O[C@@H]2CO)[C@H](O)[C@@H](O)[C@@H]1N[C@H]1C=C(CO)[C@@H](O)[C@H](O)[C@H]1O (stereo partly drawn) [Acarbose]	3 ± 1	–	–	–	–	–	–	–	Reduction in the incidence of diabetes ([1]; acarbose treatment, ref [18]): 25%; Reduction of the postprandial peak of glycemia ([1]; acarbose treatment, ref [19]): 20%; Most common adverse effect ([1]; dose-dependent, flatulence, meteorism and abdominal distention, ref [19]): gastrointestinal disturbance; Duration of the effect on postprandial glycemia ([1]; ref [19]): ≤ 5 h; Dose exceeding the saturated binding of α-glucosidase, no increase in inhibitory effect ([1]; ref [20],[21]): > 300 mg/day; Lowest dose with clinical effects ([1]; ref [20],[21]): 150 mg/day
Oc1cc(O)c2cc(O)c(-c3ccc(O)c(O)c3)[o+]c2c1 [Cyanidin, Cyanidin chloride]	> 3000	weak	significantly increased	380 ± 10	weak	No change	1420 ± 250	–	Percentage intestinal maltase inhibition in combination with acarbose, compared with acarbose alone (intestinal maltase; 1 μM compound + 0.05 μM acarbose, Figure 2): No change
OC[C@H]1O[C@@H](Oc2cc3c(O[C@@H]4O[C@H](CO)[C@@H](O)[C@H](O)[C@H]4O)cc(O)cc3[o+]c2-c2ccc(O)c(O)c2)[C@H](O)[C@@H](O)[C@@H]1O [Cyanidin-3,5-diglucoside, cyanidin-3,5-diglucoside]	> 3000	no inhibitory activity	did not show significant changes	> 1000	inactive	synergistic effects	> 2000	–	–
C[C@@H]1O[C@@H](OC[C@H]2O[C@@H](Oc3cc4c(O)cc(O)cc4[o+]c3-c3ccc(O)c(O)c3)[C@H](O)[C@@H](O)[C@@H]2O)[C@H](O)[C@H](O)[C@H]1O [cyanidin-3-rutinoside]	–	–	–	–	–	–	–	–	Manner of inhibition of yeast α-glucosidase (yeast α-glucosidase): non-competitive

Further lines, with some results ahead:

IC50 (intestinal maltase) [µM]	Pancreatic α-amylase inhibitory activity [2]	Percentage pancreatic α-amylase inhibition in combination with acarbose, compared with acarbose alone [2]	IC50 [2] [µM]	Intestinal sucrase inhibitory activity (intestinal sucrase [3])	Percentage intestinal sucrase inhibition in combination with acarbose, compared with acarbose alone (intestinal sucrase [3])	IC50 (intestinal sucrase [3]) [µM]	Structure (SMILES)	Insulin secretion (pancreatic β-cell line)	further results
> 3000	no inhibitory activity	did not show significant changes	> 1000	–	synergistic effects	–	OC[C@H]1O[C@@H](Oc2cc3c(O)cc(O)cc3[o+]c2-c2ccc(O)c(O)c2)[C@H](O)[C@@H](O)[C@H]1O [Cyanidin-3-galactoside, cyanidin-3-galactoside chloride]	directly stimulate insulin secretion	Effect of combination with acarbose on intestinal α-glucosidase inhibition (intestinal α-glucosidase): synergistic effect; Type of inhibition against intestinal sucrase (intestinal sucrase [4]; kinetic model, ref [8]): mixed type; IC50 (intestinal sucrase [4]; previously reported value, ref Adisakwattana et al. [8]): 500 ± 50 µM
> 3000	–	significantly increased	300 ± 10	–	synergistic effects	970 ± 50	OC[C@H]1O[C@@H](Oc2cc3c(O)cc(O)cc3[o+]c2-c2ccc(O)c(O)c2)[C@H](O)[C@@H](O)[C@@H]1O [Cyanidin-3-glucoside, cyanidin-3-glucoside chloride]	directly stimulate insulin secretion	Action against induced insulin resistance (3T3-L1 adipocytes): protective action
